Measurements from patent US10406146B2, “Heterocyclic compound” (TAKEDA PHARMACEUTICAL COMPANY LIMITED, priority 2015, dated 2019).

Assays:
Assay type in all cases: biochemical
HDAC1 enzyme = target: T1, HDAC1 enzyme (Homo sapiens, UniProt Q13547); assay: HDAC1 enzyme inhibitory assay (HDAC-Glo I/II Assay kit); details: wells without enzyme = 100% inhibition, read-out: HDAC1 inhibitory rate (%) (1 μM)
T1 construct: transducing full length HDAC1 and HDAC6 genes into Sf-9 insect cells; GST; purchased SignalChem; host or cells: Sf-9 insect cells
Protocol: (§1) HDAC1/6 Enzyme Inhibitory Assay
(§2) HDAC1 enzyme and HDAC6 enzyme each prepared by transducing full length HDAC1 and HDAC6 genes into Sf-9 insect cells and purifying by GST affinity column were purchased from SignalChem. Using these enzymes, HDAC1 and/or HDAC6 enzyme inhibitory activities of the compound of the present invention were evaluated. Enzymes were used after preserved at −70° C. HDAC1 or HDAC6 enzyme inhibitory activity of the compound of the present invention was measured using HDAC-Glo™ I/II Assay kit (Promega) according to the following experimental method. The test compound diluted with assay buffer (24 mM Tris-HCl (pH 7.5), 1 mM MgCl2, 0.35 mM KCl, 135 mM NaCl, 0.6 mM Glutathione, 0.01% Tween-20) was added to a 384-well plate by each 2 μL. Then, HDAC1 or HDAC6 enzyme solution diluted with assay buffer was added thereto by each 4 μL, and the plate was incubated at room temperature for 60 min. After incubated, HDAC substrate-Developer solution prepared according to Promega protocol attached to the assay kit was added to the 384-well plate by each 2 μL, and the enzyme reaction was started. After reacting at room temperature for 20 min, luminescence level was measured using plate reader Envision (PerkinElmer). The inhibitory activity of each compound was calculated as a relative activity value when luminescence level in wells without enzyme is considered as 100% inhibition.

HDAC6 enzyme = target: T2, HDAC6 enzyme (Homo sapiens, UniProt Q9UBN7); assay: HDAC6 enzyme inhibitory assay (HDAC-Glo I/II Assay kit); details: wells without enzyme = 100% inhibition, read-out: HDAC6 inhibitory rate (%) (1 μM)
T2 construct: transducing full length HDAC1 and HDAC6 genes into Sf-9 insect cells; GST; purchased SignalChem; host or cells: Sf-9 insect cells
T2 sequence (Q9UBN7 1-1215): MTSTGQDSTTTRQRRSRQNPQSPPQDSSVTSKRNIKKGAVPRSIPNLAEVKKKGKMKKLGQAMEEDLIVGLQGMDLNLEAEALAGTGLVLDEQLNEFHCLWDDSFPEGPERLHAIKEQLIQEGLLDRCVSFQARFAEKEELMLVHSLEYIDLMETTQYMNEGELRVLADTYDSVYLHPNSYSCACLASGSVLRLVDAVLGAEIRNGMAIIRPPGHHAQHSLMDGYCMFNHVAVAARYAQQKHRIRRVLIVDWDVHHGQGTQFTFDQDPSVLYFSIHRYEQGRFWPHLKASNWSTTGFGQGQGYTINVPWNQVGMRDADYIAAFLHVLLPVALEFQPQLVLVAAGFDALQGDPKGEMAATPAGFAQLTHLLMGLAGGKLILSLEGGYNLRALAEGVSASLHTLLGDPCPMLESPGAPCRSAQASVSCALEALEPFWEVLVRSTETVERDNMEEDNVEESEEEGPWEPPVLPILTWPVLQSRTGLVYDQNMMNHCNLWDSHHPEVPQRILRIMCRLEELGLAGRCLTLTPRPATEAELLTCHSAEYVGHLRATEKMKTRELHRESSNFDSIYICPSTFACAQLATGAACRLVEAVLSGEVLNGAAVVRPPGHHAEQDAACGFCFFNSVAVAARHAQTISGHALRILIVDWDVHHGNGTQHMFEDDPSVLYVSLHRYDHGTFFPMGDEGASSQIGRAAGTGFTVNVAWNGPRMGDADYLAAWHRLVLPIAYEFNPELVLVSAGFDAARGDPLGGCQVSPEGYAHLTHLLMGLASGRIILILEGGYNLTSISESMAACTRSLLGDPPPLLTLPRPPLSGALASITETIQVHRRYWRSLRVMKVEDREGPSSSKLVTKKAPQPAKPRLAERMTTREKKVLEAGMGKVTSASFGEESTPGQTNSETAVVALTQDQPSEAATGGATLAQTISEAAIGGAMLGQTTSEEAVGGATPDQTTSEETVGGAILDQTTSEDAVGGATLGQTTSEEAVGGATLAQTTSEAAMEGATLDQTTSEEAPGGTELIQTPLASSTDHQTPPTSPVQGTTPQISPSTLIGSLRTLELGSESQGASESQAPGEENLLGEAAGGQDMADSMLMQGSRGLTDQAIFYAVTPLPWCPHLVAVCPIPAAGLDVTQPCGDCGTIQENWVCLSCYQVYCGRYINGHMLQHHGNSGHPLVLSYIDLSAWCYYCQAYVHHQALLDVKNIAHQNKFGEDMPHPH
Protocol: as §1, §2

HDAC9 enzyme = target: T3, HDAC9 enzyme (Homo sapiens, UniProt Q9UKV0); assay: HDAC9 enzyme inhibitory assay (HDAC-Glo class IIa); details: wells without enzyme = 100% inhibition, read-out: HDAC9 inhibitory rate (%) (1 μM)
T3 construct: transducing full length HDAC9 gene into Sf-9 insect cells; made in house; host or cells: Sf-9 insect cells
Protocol: HDAC9 Enzyme Inhibitory Assay
Enzyme was prepared by transducing full length HDAC9 gene into Sf-9 insect cells and purifying by Ni-NTA affinity column, and HDAC9 enzyme inhibitory activity was evaluated. Enzymes were used after preserved at −70° C. HDAC9 enzyme inhibitory activity of the test compound was measured using HDAC-Glo class IIa (Promega) according to the following experimental method. The test compound diluted with assay buffer (24 mM Tris-HCl (pH 7.5), 1 mM MgCl2, 0.35 mM KCl, 135 mM NaCl, 0.6 mM Glutathione, 0.01% Tween-20) was added to a 384-well plate by each 2 μL. Then, HDAC9 enzyme solution diluted with assay buffer was added thereto by each 2 μL, and the plate was incubated at room temperature for 60 min. After incubated, HDAC substrate-Developer solution prepared according to Promega protocol was added to the 384-well plate by each 4 μL, and the enzyme reaction was started. After reacting at room temperature for 20 min, luminescence level was measured using plate reader Envision (PerkinElmer). The inhibitory activity of each compound was calculated as a relative activity value when luminescence level in wells without enzyme is considered as 100% inhibition.

T3 sequence (Q9UKV0 whole entry, species assumed): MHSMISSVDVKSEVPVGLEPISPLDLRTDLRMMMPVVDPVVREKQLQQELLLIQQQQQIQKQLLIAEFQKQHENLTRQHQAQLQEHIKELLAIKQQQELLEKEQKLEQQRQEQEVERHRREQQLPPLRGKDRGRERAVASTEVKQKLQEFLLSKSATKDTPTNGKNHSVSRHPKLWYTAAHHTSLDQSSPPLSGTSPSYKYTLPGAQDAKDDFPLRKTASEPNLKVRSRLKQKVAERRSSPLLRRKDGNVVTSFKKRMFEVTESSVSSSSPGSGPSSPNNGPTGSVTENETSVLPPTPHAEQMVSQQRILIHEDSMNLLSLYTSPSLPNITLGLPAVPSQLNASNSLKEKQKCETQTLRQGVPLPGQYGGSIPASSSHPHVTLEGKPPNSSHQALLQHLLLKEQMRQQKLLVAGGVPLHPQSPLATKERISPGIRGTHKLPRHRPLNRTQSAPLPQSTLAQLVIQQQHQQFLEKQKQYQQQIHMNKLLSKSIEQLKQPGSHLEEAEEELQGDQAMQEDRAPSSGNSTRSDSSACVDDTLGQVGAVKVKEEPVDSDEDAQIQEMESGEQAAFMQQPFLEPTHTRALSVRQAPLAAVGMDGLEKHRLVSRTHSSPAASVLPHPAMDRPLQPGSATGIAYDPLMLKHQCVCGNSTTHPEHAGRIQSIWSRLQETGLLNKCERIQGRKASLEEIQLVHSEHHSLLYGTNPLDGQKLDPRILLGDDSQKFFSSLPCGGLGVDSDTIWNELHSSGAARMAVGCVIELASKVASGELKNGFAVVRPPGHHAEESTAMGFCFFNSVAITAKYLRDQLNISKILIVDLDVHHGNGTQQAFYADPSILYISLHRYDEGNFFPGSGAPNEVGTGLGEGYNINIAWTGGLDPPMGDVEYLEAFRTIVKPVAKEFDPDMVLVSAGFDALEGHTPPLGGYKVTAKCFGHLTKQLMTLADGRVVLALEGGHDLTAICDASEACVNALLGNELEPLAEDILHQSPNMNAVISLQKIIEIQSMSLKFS
T1 sequence (Q13547 whole entry): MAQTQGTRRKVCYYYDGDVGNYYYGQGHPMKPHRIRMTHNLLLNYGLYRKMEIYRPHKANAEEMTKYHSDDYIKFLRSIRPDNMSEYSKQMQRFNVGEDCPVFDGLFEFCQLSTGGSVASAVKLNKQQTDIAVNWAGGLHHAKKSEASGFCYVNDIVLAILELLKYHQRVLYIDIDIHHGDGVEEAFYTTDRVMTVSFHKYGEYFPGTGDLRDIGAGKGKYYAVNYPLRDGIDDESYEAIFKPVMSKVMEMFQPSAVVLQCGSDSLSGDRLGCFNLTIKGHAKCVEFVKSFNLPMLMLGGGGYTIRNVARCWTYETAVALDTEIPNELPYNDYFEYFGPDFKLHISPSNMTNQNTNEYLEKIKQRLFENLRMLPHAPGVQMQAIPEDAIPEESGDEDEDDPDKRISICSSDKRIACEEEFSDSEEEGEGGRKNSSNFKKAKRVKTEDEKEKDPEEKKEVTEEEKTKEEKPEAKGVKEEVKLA

SMILES | inhibition at 1 µM (HDAC1 enzyme) [%] | inhibition at 1 µM (HDAC6 enzyme) [%] | inhibition at 1 µM (HDAC9 enzyme) [%]
O=C(NCC1CCCCN1C(=O)Nc1ccc(-c2noc(C(F)(F)F)n2)cc1)c1cc2ccccc2o1 (stereo not drawn) [Example 44, 2-(((1-benzofuran-2-ylcarbonyl)amino)methyl)-N-(4-(5-(trifluoromethyl)-1,2,4-oxadiazol-3-yl)phenyl)piperidine-1-carboxamide] | 3 | 1 | 79
O=C(NCC1CCCCN1C(=O)Nc1ccc(-c2noc(C(F)(F)F)n2)cc1)C1CCc2ccccc2O1 (stereo not drawn) [Example 43, 2-(((3,4-dihydro-2H-chromen-2-ylcarbonyl)amino)methyl)-N-(4-(5-(trifluoromethyl)-1,2,4-oxadiazol-3-yl)phenyl)piperidine-1-carboxamide] | 57 | 7 | 74
O=C(NCC1CCCCN1C(=O)Nc1ccc(-c2noc(C(F)(F)F)n2)cc1)c1ccc(F)cc1 (stereo not drawn) [Example 6, 2-(((4-fluorobenzoyl)amino)methyl)-N-(4-(5-(trifluoromethyl)-1,2,4-oxadiazol-3-yl)phenyl)piperidine-1-carboxamide] | 34 | 5 | 94
O=C(NCC1CCCCN1C(=O)Nc1ccc(-c2noc(C(F)(F)F)n2)cc1)c1ccccc1Cl (stereo not drawn) [Example 7, 2-(((2-chlorobenzoyl)amino)methyl)-N-(4-(5-(trifluoromethyl)-1,2,4-oxadiazol-3-yl)phenyl)piperidine-1-carboxamide] | -3 | 3 | 52
Cc1cccc(C(=O)NCC2CCCCN2C(=O)Nc2ccc(-c3noc(C(F)(F)F)n3)cc2)n1 (stereo not drawn) [Example 55, 6-methyl-N-((1-((4-(5-(trifluoromethyl)-1,2,4-oxadiazol-3-yl)phenyl)carbamoyl)piperidin-2-yl)methyl)pyridine-2-carboxamide] | 31 | 2 | 85
O=C(NCC1CCCCN1C(=O)Nc1ccc(-c2noc(C(F)(F)F)n2)cc1)c1cccc(Cl)c1 (stereo not drawn) [Example 8, 2-(((3-chlorobenzoyl)amino)methyl)-N-(4-(5-(trifluoromethyl)-1,2,4-oxadiazol-3-yl)phenyl)piperidine-1-carboxamide] | -7 | 2 | 68
Cn1nccc1C(=O)NCC1CCCCN1C(=O)Nc1ccc(-c2noc(C(F)(F)F)n2)cc1 (stereo not drawn) [Example 41, 2-((((1-methyl-1H-pyrazol-5-yl)carbonyl)amino)methyl)-N-(4-(5-(trifluoromethyl)-1,2,4-oxadiazol-3-yl)phenyl)piperidine-1-carboxamide] | 59 | 7 | 98
O=C(NCC1COCCN1C(=O)Nc1ccc(-c2noc(C(F)(F)F)n2)cc1)c1ccccc1 (stereo not drawn) [Example 1, 3-((benzoylamino)methyl)-N-(4-(5-(trifluoromethyl)-1,2,4-oxadiazol-3-yl)phenyl)morpholine-4-carboxamide] | 62 | 6 | 98
Cn1ccnc1C(=O)NCC1CCCCN1C(=O)Nc1ccc(-c2noc(C(F)(F)F)n2)cc1 (stereo not drawn) [Example 39, 2-((((1-methyl-1H-imidazol-2-yl)carbonyl)amino)methyl)-N-(4-(5-(trifluoromethyl)-1,2,4-oxadiazol-3-yl)phenyl)piperidine-1-carboxamide] | 47 | 5 | 90
O=C(NCC1CCCCN1C(=O)Nc1ccc(-c2noc(C(F)(F)F)n2)cc1)C1CC1 (stereo not drawn) [Example 49, 2-(((cyclopropylcarbonyl)amino)methyl)-N-(4-(5-(trifluoromethyl)-1,2,4-oxadiazol-3-yl)phenyl)piperidine-1-carboxamide] | 75 | 7 | 92
O=C(NCC1CCCCN1C(=O)Nc1ccc(-c2noc(C(F)(F)F)n2)cc1)c1cccc(-c2ccccc2)c1 (stereo not drawn) [Example 14, 2-(((biphenyl-3-ylcarbonyl)amino)methyl)-N-(4-(5-(trifluoromethyl)-1,2,4-oxadiazol-3-yl)phenyl)piperidine-1-carboxamide] | -8 | 5 | 51
O=C(NCC1CCCCN1C(=O)Nc1ccc(-c2noc(C(F)(F)F)n2)cc1)c1csc(C(F)(F)F)n1 (stereo not drawn) [Example 60, N-(4-(5-(trifluoromethyl)-1,2,4-oxadiazol-3-yl)phenyl)-2-((((2-(trifluoromethyl)-1,3-thiazol-4-yl)carbonyl)amino)methyl)piperidine-1-carboxamide] | 20 | 1 | 72
Cn1nc(C(=O)NCC2CCCCN2C(=O)Nc2ccc(-c3noc(C(F)(F)F)n3)cc2)c2ccccc21 (stereo not drawn) [Example 42, 1-methyl-N-((1-((4-(5-(trifluoromethyl)-1,2,4-oxadiazol-3-yl)phenyl)carbamoyl)piperidin-2-yl)methyl)-1H-indazole-3-carboxamide] | 8 | 3 | 71
O=C(NCC1CCCCN1C(=O)Nc1ccc(-c2noc(C(F)(F)F)n2)cc1)c1ccccc1 (stereo not drawn) [Example 2, 2-((benzoylamino)methyl)-N-(4-(5-(trifluoromethyl)-1,2,4-oxadiazol-3-yl)phenyl)piperidine-1-carboxamide] | 80 | 10 | 90
O=C(NCC1CCCCN1C(=O)Nc1ccc(-c2noc(C(F)(F)F)n2)cc1)c1ccccn1 (stereo not drawn) [Example 34, N-((1-((4-(5-(trifluoromethyl)-1,2,4-oxadiazol-3-yl)phenyl)carbamoyl)piperidin-2-yl)methyl)pyridine-2-carboxamide] | 28 | 4 | 84
O=C(NCC1CCCCN1C(=O)Nc1ccc(-c2noc(C(F)(F)F)n2)cc1)c1cccc(F)c1 (stereo not drawn) [Example 5, 2-(((3-fluorobenzoyl)amino)methyl)-N-(4-(5-(trifluoromethyl)-1,2,4-oxadiazol-3-yl)phenyl)piperidine-1-carboxamide] | 35 | 4 | 95
